# Measurements as given in patent US11312727B1, “Macrocyclic flu endonuclease inhibitors” (Janssen BioPharma, Inc., priority 2018, dated 2022).
# pEC50: −log10 of the molar value. Read-outs that look alike come from different tables or passages of the source.
# Assays:
# [1] = system: Influenza strain A549 A/WSN/33 (H1N1); experiment: microbe, parasite or virus in culture; type: cell-based; settings: A549 cells, influenza A/WSN/33 (H1N1), 20 hours incubation, read-out: A549_A(H1N1) EC50
# in vitro = settings: human, CC50, uninfected A549 cells, CellTiter-Glo
Structure (SMILES),"pEC50 ([1]; Influenza A virus, A549, 20 h)",CC50 (in vitro) [nM],pEC50 [1]
"O=C1c2c(O)c(=O)ccn2N2CN1CCCCCc1ccncc1[C@H]2c1ccccc1 (single isomer, unassigned) [Compound 34A, (18*R)-12-hydroxy-18-phenyl-5,6,7,8,9,18-hexahydro-10,17-methanodipyrido[1,2-b:4′,3′-k][1,2,5]triazacyclotridecine-11,13-dione]",7.23,> 2000,
"O=C1c2c(O)c(=O)ccn2N2CN1CCCCCc1ccncc1[C@@H]2c1ccccc1 (single isomer, unassigned) [Compound 34B, (18*S)-12-hydroxy-18-phenyl-5,6,7,8,9,18-hexahydro-10,17-methanodipyrido[1,2-b:4′,3′-k][1,2,5]triazacyclotridecine-11,13-dione]",< 6.00,> 2000,
"O=C1c2c(O)c(=O)ccn2N2CN1C/C=C\CCc1ccncc1[C@H]2c1ccccc1 (single isomer, unassigned) [Compound 35A, (18*R,*Z)-12-hydroxy-18-phenyl-5,6,9,18-tetrahydro-10,17-methanodipyrido[1,2-b:4′,3′-k][1,2,5]triazacyclotridecine-11,13-dione]",7.16,> 2000,
"O=C1c2c(O)c(=O)ccn2N2CN1C/C=C\CCc1ccncc1[C@@H]2c1ccccc1 (single isomer, unassigned) [Compound 35B, (18*S,*Z)-12-hydroxy-18-phenyl-5,6,9,18-tetrahydro-10,17-methanodipyrido[1,2-b:4′,3′-k][1,2,5]triazacyclotridecine-11,13-dione]",< 6.00,> 2000,
"O=C1c2c(O)c(=O)ccn2N2CN1C/C=C\COc1ccccc1[C@@H]2c1ccccc1F (single isomer, unassigned) [Compound 36A, (18*R,Z)-18-(2-fluorophenyl)-12-hydroxy-6,9-dihydro-18H-10,17-methanobenzo[b]pyrido[1,2-f][1]oxa[5,6,9]triazacyclotridecine-11,13-dione]",7.82,> 2000,
"O=C1c2c(O)c(=O)ccn2N2CN1C/C=C\COc1ccccc1[C@H]2c1ccccc1F (single isomer, unassigned) [Compound 36B, (18*S,Z)-18-(2-fluorophenyl)-12-hydroxy-6,9-dihydro-18H-10,17-methanobenzo[b]pyrido[1,2-f][1]oxa[5,6,9]triazacyclotridecine-11,13-dione]",6.09,> 2000,
"O=C1c2c(O)c(=O)ccn2N2CN1CC/C=C\COc1cccc3c1[C@@H]2c1ccccc1SC3 (single isomer, unassigned) [Compound 37A, (1*R,13Z)-7-hydroxy-16-oxa-23-thia-2,3,10-triazahexacyclo[15.12.1.12,10.03,8.021,30.024,29]hentriaconta-4,7,13,17,19,21(30),24(29),25,27-nonaene-6,9-dione]",4.91,> 2000,
"O=C1c2c(O)c(=O)ccn2N2CN1CC/C=C\COc1cccc3c1[C@H]2c1ccccc1SC3 (single isomer, unassigned) [Compound 37B, (1*S,13Z)-7-hydroxy-16-oxa-23-thia-2,3,10-triazahexacyclo[15.12.1.12,10.03,8.021,30.024,29]hentriaconta-4,7,13,17,19,21(30),24(29),25,27-nonaene-6,9-dione]",8.40,> 200,
"O=C1c2c(O)c(=O)ccn2N2CN1CC/C=C/COc1cccc3c1[C@@H]2c1ccccc1SC3 (single isomer, unassigned) [Compound 37C]",< 6.00,> 2000,
"O=C1c2c(O)c(=O)ccn2N2CN1CC/C=C/COc1cccc3c1[C@H]2c1ccccc1SC3 (single isomer, unassigned) [Compound 37D, (1*S,13E)-7-hydroxy-16-oxa-23-thia-2,3,10-triazahexacyclo[15.12.1.12,10.03,8.021,30.024,29]hentriaconta-4,7,13,17,19,21(30),24(29),25,27-nonaene-6,9-dione]",9.00,> 200,
"C/C1=C/COc2ccccc2[C@@H](c2ccccc2)N2CN(C1)C(=O)c1c(O)c(=O)ccn12 (single isomer, unassigned) [Compound 38A, (18*R,Z)-12-hydroxy-8-methyl-18-phenyl-6,9-dihydro-18H-10,17-methanobenzo[b]pyrido[1,2-f][1]oxa[5,6,9]triazacyclotridecine-11,13-dione]",< 6.00,> 2000,
"C/C1=C/COc2ccccc2[C@H](c2ccccc2)N2CN(C1)C(=O)c1c(O)c(=O)ccn12 (single isomer, unassigned) [Compound 38B, (18*S,Z)-12-hydroxy-8-methyl-18-phenyl-6,9-dihydro-18H-10,17-methanobenzo[b]pyrido[1,2-f][1]oxa[5,6,9]triazacyclotridecine-11,13-dione]",7.59,> 2000,
"O=C1c2c(O)c(=O)ccn2N2CN1CCCCCc1ccccc1[C@@H]2c1ccccn1 (single isomer, unassigned) [Compound 40A, (17*R)-4-hydroxy-16-(pyridin-2-yl)-7,8,9,10,11,16-hexahydro-6,17-methanobenzo[k]pyrido[1,2-b][1,2,5]triazacyclotridecine-3,5-dione]",7.52,> 2000,
"O=C1c2c(O)c(=O)ccn2N2CN1CCCCCc1ccccc1[C@H]2c1ccccn1 (single isomer, unassigned) [Compound 40B, (17*S)-4-hydroxy-16-(pyridin-2-yl)-7,8,9,10,11,16-hexahydro-6,17-methanobenzo[k]pyrido[1,2-b][1,2,5]triazacyclotridecine-3,5-dione]",< 6.00,> 2000,
"O=C1c2c(O)c(=O)ccn2N2CN1C/C=C\COc1cc(F)c(F)cc1[C@H]2c1ccccc1 (single isomer, unassigned) [Compound 41A, (18*R,Z)-2,3-difluoro-12-hydroxy-18-phenyl-6,9-dihydro-18H-10,17-methanobenzo[b]pyrido[1,2-f][1]oxa[5,6,9]triazacyclotridecine-11,13-dione]",6.53,> 2000,
"O=C1c2c(O)c(=O)ccn2N2CN1C/C=C\COc1cc(F)c(F)cc1[C@@H]2c1ccccc1 (single isomer, unassigned) [Compound 41B, (18*S,Z)-2,3-difluoro-12-hydroxy-18-phenyl-6,9-dihydro-18H-10,17-methanobenzo[b]pyrido[1,2-f][1]oxa[5,6,9]triazacyclotridecine-11,13-dione]",8.22,> 2000,
"C/C1=C/CN2CN([C@H](c3ccccc3)c3ccccc3OC1)n1ccc(=O)c(O)c1C2=O (single isomer, unassigned) [Compound 44A, (18*R,*Z)-12-hydroxy-7-methyl-18-phenyl-6,9-dihydro-18H-10,17-methanobenzo[b]pyrido[1,2-f][1]oxa[5,6,9]triazacyclotridecine-11,13-dione]",< 7.00,> 200,
"C/C1=C/CN2CN([C@@H](c3ccccc3)c3ccccc3OC1)n1ccc(=O)c(O)c1C2=O (single isomer, unassigned) [Compound 44B, (18*S,*Z)-12-hydroxy-7-methyl-18-phenyl-6,9-dihydro-18H-10,17-methanobenzo[b]pyrido[1,2-f][1]oxa[5,6,9]triazacyclotridecine-11,13-dione]",< 5.00,> 20000,
"O=C1c2c(O)c(=O)ccn2N2CN1C/C=C\COc1ccccc1[C@H]2c1ccc(F)c(F)c1 (single isomer, unassigned) [Compound 45A, (18*R,Z)-18-(3,4-difluorophenyl)-12-hydroxy-6,9-dihydro-18H-10,17-methanobenzo[b]pyrido[1,2-f][1]oxa[5,6,9]triazacyclotridecine-11,13-dione]",< 6.00,> 2000,
"O=C1c2c(O)c(=O)ccn2N2CN1C/C=C\COc1ccccc1[C@@H]2c1ccc(F)c(F)c1 (single isomer, unassigned) [Compound 45B, (18*S,Z)-18-(3,4-difluorophenyl)-12-hydroxy-6,9-dihydro-18H-10,17-methanobenzo[b]pyrido[1,2-f][1]oxa[5,6,9]triazacyclotridecine-11,13-dione]",7.85,> 200,
"O=C1c2c(O)c(=O)ccn2N2CN1C/C=C\COc1ccccc1[C@H]2c1ccc(F)cc1 (single isomer, unassigned) [Compound 47A, (18*R,Z)-18-(4-fluorophenyl)-12-hydroxy-6,9-dihydro-18H-10,17-methanobenzo[b]pyrido[1,2-f][1]oxa[5,6,9]triazacyclotridecine-11,13-dione]",< 6.00,> 2000,
"O=C1c2c(O)c(=O)ccn2N2CN1C/C=C\COc1ccccc1[C@@H]2c1ccc(F)cc1 (single isomer, unassigned) [Compound 47B, (18*S,Z)-18-(4-fluorophenyl)-12-hydroxy-6,9-dihydro-18H-10,17-methanobenzo[b]pyrido[1,2-f][1]oxa[5,6,9]triazacyclotridecine-11,13-dione]",7.82,> 200,
"O=C1c2c(O)c(=O)ccn2N2CN1CCCCCOc1cccc3c1[C@H]2c1ccccc1SC3 (single isomer, unassigned) [Compound 48A]",,> 2000,< 6.00
"O=C1c2c(O)c(=O)ccn2N2CN1CCCCCOc1cccc3c1[C@@H]2c1ccccc1SC3 (single isomer, unassigned) [Compound 48B]",,> 2000,7.57
"O=C1c2c(O)c(=O)ccn2N2CN1C/C=C\COc1ccc(Cl)cc1[C@H]2c1ccccc1 (single isomer, unassigned) [Compound 51A]",< 6.00,> 2000,
"O=C1c2c(O)c(=O)ccn2N2CN1C/C=C\COc1ccc(Cl)cc1[C@@H]2c1ccccc1 (single isomer, unassigned) [Compound 51B]",8.00,> 2000,
